In patent US7951997B2, “Reversible male sterility in transgenic plants by expression of cytokinin oxidase” (Monsanto Technology LLC, priority 2001, dated 2011):

System: male-sterile F1 transgenic plants (CKX1)
Assay: Fertility restoration: tassel fertility rating after TDZ and kinetin applications
Format: in vivo, corn
Parameters: key: 0: No or very little floral development; x: Advanced floral development observed in some areas of tassels; xx: Increased areas of advanced floral development and anthersis observed in some flowers
Conditions: 0.25% Sylgard 309
Experimental: Two commercially registered chemicals were tested in fertility restoration experiments. Kinetin is a synthetic cytokinin that is not oxidized by CKX1 and TDZ is a known cytokinin oxidase inhibitor. The F1 seeds from the crosses between wild-type plants and several male-sterile R0 events were planted. NPTII ELISA positive plants were identified as the male-sterile transgenic plants among F1 segregating populations by enzyme-linked immunosorbent assays (ELISA, Example 3) performed on leaf samples collected at the seedling stage of all plants. Identified plants were treated at the V4, V7 and V10 stages. The application rates for each plant were 0, 10, 20, 30, and 100 mg of kinetin with or without 3 mg of TDZ in the presence of 0.25% of Sylgard 309 surfactant (Willbur-Ellis, Fresno, Calif.). One to three plants were tested at a particular rate combination.
The NPTII ELISA tests were thus used to select male sterile F1 transgenic plants for chemical treatments. […] These chemical application conditions were not sufficient to produce fully fertile plants. The degree of floral development restoration varied and was limited to older tissues of the tassel. […] Table 3 details tassel fertility rating of the restoration study.
Two to three transgenic F1 plants were used in each treatment group. Plants were either treated repeatedly in three different rates at three V4, V7 and V10 developmental stages or once in a higher rate at V7 developmental stage. Rates are indicated by mg/plant of TDZ and kinetin, respectively, in the presence of 0.25% of Sylgard 309 surfactant. The fertility rating was based on the visual observation. 0, No or very little floral development; x, Advanced floral development observed in some areas of tassels; xx, Increased areas of advanced floral development and anthersis observed in some flowers.

Measured: tassel fertility rating

c1coc(CNc2ncnc3[nH]cnc23)c1 [kinetin]
0: line 16400, TDZ 0, kinetin 20 mg/plant, applications at V4 + V7 + V10 | line 16400, TDZ 0, kinetin 100 mg/plant, application at V7 | line 16409, TDZ 0, kinetin 20 mg/plant, applications at V4 + V7 + V10 | line 16409, TDZ 0, kinetin 100 mg/plant, application at V7 | line 16802, TDZ 0, kinetin 20 mg/plant, applications at V4 + V7 + V10 | line 16802, TDZ 0, kinetin 100 mg/plant, application at V7 | line 16825, TDZ 0, kinetin 20 mg/plant, applications at V4 + V7 + V10 | line 16825, TDZ 0, kinetin 100 mg/plant, application at V7 | line 16832, TDZ 0, kinetin 20 mg/plant, applications at V4 + V7 + V10 | line 16832, TDZ 0, kinetin 100 mg/plant, application at V7
